Assays:
Tet(X4) [1] = target: T1, Tet(X4) (Escherichia coli, UniProt A0A3T0V9Y5); experiment: FP competitive displacement of probe 6; format: binding; details: IC50app, Tet(X4) (Polarization), 25 nM 6, 40 nM Tet(X4), 5 mM MgCl2, 1 μM FAD, 100 mM Tris pH 7.0, 0.01% Triton X-100
Experimental: A 2× solution containing 80 nM Tet(X4), 2 μM FAD and 10 mM MgCl2 in the assay buffer was dispensed into the first 22 columns of a 384-well black, non-binding microtiter plate (Greiner Bio-One), 12.5 μL per well, using a microplate reagent dispenser. A solution of 2 μM FAD and 10 mM MgCl2 in the assay buffer was dispensed into the remaining columns to serve as a no enzyme control. A 3-fold, 10-point dilution series of substrates and inhibitors was made in DMSO in a V-bottom 96-well plate (Greiner Bio-One) with a highest concentration of 5 mM or 0.5 mM. Into one column was added DMSO with no inhibitor or substrate, to serve as a positive control. Tigecycline was included as a reference on every plate to ensure reproducibility. 0.5 μL of each dilution was transferred in quadruplicate to the 384-well plate containing enzyme solution using a CyBi-Well liquid-handling robot (CyBio). A solution of 50 nM 6 in the assay buffer was then dispensed, with 12.5 μL per well. The plate was briefly centrifuged (1000 rpm), then incubated at ambient temperature for 30 min prior to measuring the FP. Data points were normalised between the positive and negative controls. Normalised % response was plotted as a function of log10([Inhibitor]), and the IC50^app was determined by fitting the data to the equation: Y = Bottom + (top-bottom)/(1 + 10^Log(IC50) − X) × HillSlope in GraphPad Prism 9.4.1, where Y = % response and X = log10([Inhibitor]). Wells with unusual fluorescence intensities were manually identified and removed from the analysis. […]

Tet(X4) [2] = target: T1, Tet(X4); experiment: biochemical; details: 20 μM tigecycline, 50 nM Tet(X4), 100 μM NADPH, 5 mM MgCl2, 1 μM FAD, 100 mM TAPS pH 8.5; read-out: IC50, UPLC assay
Experimental: We then tested the binding of reported type 1 TDase inhibitors to Tet(X4) (Fig. 3f, ESI Fig. S17 ^†).[33,38,39] […] We also developed a complementary endpoint activity assay where the turnover of tigecycline by Tet(X4) in a 96-well plate was quenched by addition of 1%v/v formic acid and analysed chromatographically. The peak integrals of tigecycline and its hydroxylated degradation product at 254 nm following UPLC analysis were measured to determine turnover (Fig. 5a).
[…] A 3-fold, 10-point dilution series of the substrates and inhibitors was made in DMSO with a top concentration of 10 mM, unless otherwise stated, and transferred to the enzyme solution using a CyBi-Well liquid-handling robot (CyBio), 1 μL per well. On each plate, a column of no enzyme negative controls and no inhibitor (DMSO only) positive controls were included. The plate was incubated at 30 °C for 15 min. A solution containing 100 mM TAPS (pH 8.5), 40 μM tigecycline and 200 μM NADPH was then dispensed, with 49 μL per well. The plate was incubated at 30 °C for 20 min at 600 rpm. 10 μL of 10%v/v formic acid solution was then dispensed into all wells. Samples were analysed using an ACQUITY H-Class PLUS UPLC instrument (Waters) equipped with a pre-equilibrated ACQUITY BEH C18 column ([…], […], Waters) using a gradient of 1–50%v/v acetonitrile with 0.1%v/v formic acid in water with 0.1%v/v formic acid over 1.83 minutes at a flow rate of 0.5 mL min^−1. Instrument control and data processing were performed using MassLynx V4.1 software. The peaks representing tigecycline and 11a-hydroxy-tigecycline were integrated, used to calculate % conversion and then normalised between positive and negative controls. The normalised % response was plotted as a function of log10[Inhibitor], and the IC50 determined as described above.

Compound: CC(=O)c1ccc2c(c1)N(CCCN1CCN(CCO)CC1)c1ccccc1S2 [Acetophenazine]
- IC50 (Tet(X4) [1]): > 100 µM
- IC50 (Tet(X4) [2]): > 100 µM

Compound: O=C(NCc1c(F)cc(F)cc1F)c1cn2c(c(O)c1=O)C(=O)N1[C@H]3CC[C@H](C3)O[C@@H]1C2 [Bictegravir]
- IC50 (Tet(X4) [1]): 54.8 ± 10.6 µM
- IC50 (Tet(X4) [2]): 76 ± 14 µM

Reference: PMC12056667 (Chemical Science, 2025)
